Results published in patent US12673915B2, “Precursor compound of hexahydro-beta-acid component compound, feed composition and use thereof” (WISORIG TECHNOLOGIES PTE. LIMITED, priority 2020, dated 2026).

Test: Long-term stability in feeds at room temperature (25° C.±2° C., RH 60%±10%; HPLC)
Format: physicochemical
Settings: for stability / content in feeds at room temperature (in words): during the testing period
From the text: Feeds: ZUSF's premixed feed (A mixture of crushed Feed A and crushed Feed B at a weight ratio of 2:1, wherein Feed A was a 5.33% multi-premixed feed for piglets from ZUSF's Hao-Ru-Zhen-Jing, and B was a 2.67% multi-premixed feed for piglets from ZUSF's Hao-Ru-Zhen-Jing); creep feed for piglets from CP FEED; INSIGHTER's feed for broiler; 4% premixed feed from GUANGDONG CO-POWER.
Preparation of a sample of 1% premix of Ingredient: 1 g of an ingredient was respectively weighed out and evenly mixed with 99 g of corncob meal in a mixer to give a sample of 1% premix of an ingredient.
Preparation of a sample of 500 ppm feed of an ingredient: The sample of 1% premix of an ingredient was diluted step by step using the ZUSF's remixed feed to 5000 ppm and 500 ppm to give the sample of 500 ppm feed of an ingredient for later testing.
Preparation of a sample of 100 ppm feed of an ingredient: sample of 1% premix of an ingredient was diluted step by step using the creep feed for piglets from CP FEED to 1000 ppm and then 100 ppm to give the sample of 100 ppm feed of an ingredient for later testing.
Preparation of a sample of 100 ppm feed of an ingredient: The sample of 1% premix of an ingredient was diluted step by step using the INSIGHTER's feed for broiler to 1000 ppm and 100 ppm to give the sample of 100 ppm feed of an ingredient for later testing.
Preparation of a sample of 2000 ppm feed of an ingredient: The sample of 1% premix of an ingredient was diluted step by step using the 4% premixed feed from GUANGDONG CO-POWER to 5000 ppm and 2000 ppm to give the sample of 2000 ppm feed of an ingredient for later testing.
Method: Three replications of each feed sample were tested at the condition of 25° C.±2° C. and RH 60%±10%, wherein the replications of each feed sample were sampled in parallel for HPLC analysis on day 5, day 10, day 15, day 30, day 60, and day 90.
25.0 mg of an ingredient was accurately weighed out and dissolved in an appropriate amount of methanol or n-hexane by ultrasonication. The solution was then transferred to a volumetric flask and diluted to 50 mL to give a 500 ppm (by wt.) stock solution. The samples from the stock solution were diluted with methanol or n-hexane respectively to a concentration of 10 ppm, 25 ppm, 50 ppm, 100 ppm, and 250 ppm of work solution, and then the working solutions were filtered by 0.22 μm organic membranes. Between the concentration of a sample and the response value of HPLC peak area thereof, the linearity was adjusted and detected to give a standard curve.
5.0000 g of the samples sampled at different time intervals were respectively accurately weighed out, and dissolved in 25 mL of methanol or n-hexane by ultrasonication for 10 minutes. The resulting solutions were filtered by organic membranes and then analyzed by HPLC.
• Equipment: Waters e2695 with PDA detector. • Mobile phase: 0.02% phosphoric acid:methanol=5:95 (v:v). • Column: Symmetry Cis column (Waters; 250 mm×4.6 mm, 5 μm). • Wavelength: 235 nm. • Temperature of the Column: 25° C. • Injection volume: 10 μL. • Flow rate: 1 mL/min. Normal Phase Chromatography: • Equipment: Shimadzu LC-14C/SPD-15C. • Column: SuperSil NH2 column ([…]; 250 mm×4.6 mm). • Mobile phase: n-hexane:isopropanol=60:40 (v:v). • Wavelength: 235 nm. • Temperature of the Column: 25° C. • Injection volume: 20 μL. • Flow rate: 1 mL/min. 3: Results

[1] = 100 ppm in INSIGHTER's broiler feed, Day 5
[2] = 100 ppm in INSIGHTER's broiler feed, Day 15
[3] = 100 ppm in INSIGHTER's broiler feed, Day 30
[4] = 100 ppm in INSIGHTER's broiler feed, Day 60
[5] = 100 ppm in creep feed for piglets from CP FEED, Day 5
[6] = 100 ppm in creep feed for piglets from CP FEED, Day 15
[7] = 100 ppm in creep feed for piglets from CP FEED, Day 30
[8] = 100 ppm in creep feed for piglets from CP FEED, Day 60
[9] = 100 ppm in creep feed for piglets from CP FEED, Day 90
[10] = 500 ppm in ZUSF's premixed feed, Day 5
[11] = 500 ppm in ZUSF's premixed feed, Day 15
[12] = 500 ppm in ZUSF's premixed feed, Day 30
[13] = 500 ppm in ZUSF's premixed feed, Day 60
[14] = 500 ppm in ZUSF's premixed feed, Day 90

With `CC(=O)OC1=C(CCC(C)C)C(=O)C(CCC(C)C)(CCC(C)C)C(O)=C1C(=O)C(C)C` [hexahydro-colupulone mono-acetate, Hexahydro-Colupulone Mono-Acetate] the “Residual amount of active ingredient” value [1] was 94.93%, the “Residual amount of active ingredient” value [2] was 81.77% and the “Residual amount of active ingredient” value [3] was 72.30%. For the same compound, the “Residual amount of active ingredient” value [4] was 71.97%, the “Residual amount of active ingredient” value [5] was 97.69% and the “Residual amount of active ingredient” value [6] was 96.27%. The “Residual amount of active ingredient” value [7] was 96.22%, the “Residual amount of active ingredient” value [8] was 96.16% and the “Residual amount of active ingredient” value [9] was 95.08%. For the same compound, the “Residual amount of active ingredient” value [10] was 96.65%, the “Residual amount of active ingredient” value [11] was 96.65% and the “Residual amount of active ingredient” value [12] was 96.84%. For the same compound, the “Residual amount of active ingredient” value [13] was 95.23%, the “Residual amount of active ingredient” value [14] was 85.29% and the “stability / content in feeds at room temperature (in words)” value was “relatively poor in some of the feeds”.

With `CCCC(=O)OC1=C(CCC(C)C)C(=O)C(CCC(C)C)(CCC(C)C)C(O)=C1C(=O)C(C)C` [hexahydro-colupulone mono-butyrate] the “Residual amount of active ingredient” value [1] was 99.00%, the “Residual amount of active ingredient” value [2] was 98.79% and the “Residual amount of active ingredient” value [3] was 98.39%. The “Residual amount of active ingredient” value [4] was 98.11%, the “Residual amount of active ingredient” value [5] was 98.19% and the “Residual amount of active ingredient” value [6] was 96.62%. For the same compound, the “Residual amount of active ingredient” value [7] was 95.70%, the “Residual amount of active ingredient” value [8] was 95.47% and the “Residual amount of active ingredient” value [9] was 95.77%. The “Residual amount of active ingredient” value [10] was 100.31%, the “Residual amount of active ingredient” value [11] was 98.23% and the “Residual amount of active ingredient” value [12] was 96.01%. The “Residual amount of active ingredient” value [13] was 96.13%, the “Residual amount of active ingredient” value [14] was 95.29% and the “Residual amount of active ingredient” value (2000 ppm in 4% premixed feed from GUANGDONG CO-POWER, Day 5) was 98.62%. The “Residual amount of active ingredient” value (2000 ppm in 4% premixed feed from GUANGDONG CO-POWER, Day 15) was 95.56%, the “Residual amount of active ingredient” value (2000 ppm in 4% premixed feed from GUANGDONG CO-POWER, Day 30) was 95.48% and the “Residual amount of active ingredient” value (2000 ppm in 4% premixed feed from GUANGDONG CO-POWER, Day 60) was 96.34%. The “Residual amount of active ingredient” value (2000 ppm in 4% premixed feed from GUANGDONG CO-POWER, Day 90) was 95.41%.

In the case of `CC(C)CCC1=C(O)C(C(=O)C(C)C)=C(O)C(CCC(C)C)(CCC(C)C)C1=O` [hexahydro-colupulone, reference compound], the “Residual amount of active ingredient” value [5] is reported as 98.28%, the “Residual amount of active ingredient” value [6] is reported as 96.93% and the “Residual amount of active ingredient” value [7] is reported as 93.07%. For the same compound, the “Residual amount of active ingredient” value [8] was 77.54%, the “Residual amount of active ingredient” value [9] was 68.28% and the “stability / content in feeds at room temperature (in words)” value was “decreased substantially”.
